According to US11723361B2, “Antimicrobial composition having efficacy against endospores” (Next Science IP Holdings Pty Ltd, priority 2015, dated 2023):

Experiment: Peracetic acid titrations (pH)
Assay type: physicochemical
Procedure: Two peracetic acid solutions were prepared by adding distilled water to a flask containing peracetic acid. The concentration of one of the solutions was 5% (w/v) while that of the other was 10% (w/v). The calculated effective solute concentrations for these solutions were 1.97 and 3.95 Osm/L, respectively.
To a 50 mL beaker was added 20 mL distilled water. A cleaned, rinsed and dried probe from a calibrated, temperature compensating pH meter was lowered into the beaker. Sequential aliquots of the peracetic acid solution then were added to the beaker, with pH readings after each. The titrations were performed at room temperature.

With `CC(=O)OO` [Peracetic acid, peracetic acid] the “pH of water after addition” value (1 mL (5% by volume) of either 5% or 10% (w/v) solution) was “below 2”, the pH (5% (w/v) solution, 0.25 mL added to 20 mL distilled water, room temperature) was 2.42 and the pH (5% (w/v) solution, 0.50 mL added to 20 mL distilled water, room temperature) was 2.17. For the same compound, the pH (5% (w/v) solution, 0.75 mL added to 20 mL distilled water, room temperature) was 2.00, the pH (5% (w/v) solution, 1.00 mL added to 20 mL distilled water, room temperature) was 1.89 and the pH (5% (w/v) solution, 1.25 mL added to 20 mL distilled water, room temperature) was 1.80. For the same compound, the pH (5% (w/v) solution, 1.50 mL added to 20 mL distilled water, room temperature) was 1.74, the pH (5% (w/v) solution, 1.75 mL added to 20 mL distilled water, room temperature) was 1.68 and the pH (5% (w/v) solution, 2.00 mL added to 20 mL distilled water, room temperature) was 1.59. For the same compound, the pH (5% (w/v) solution, 2.25 mL added to 20 mL distilled water, room temperature) was 1.56, the pH (5% (w/v) solution, 2.50 mL added to 20 mL distilled water, room temperature) was 1.53 and the pH (5% (w/v) solution, 2.75 mL added to 20 mL distilled water, room temperature) was 1.48. It also gave a pH (5% (w/v) solution, 3.00 mL added to 20 mL distilled water, room temperature) of 1.45, a pH (5% (w/v) solution, 3.25 mL added to 20 mL distilled water, room temperature) of 1.42 and a pH (5% (w/v) solution, 3.50 mL added to 20 mL distilled water, room temperature) of 1.41. It also gave a pH (5% (w/v) solution, 3.75 mL added to 20 mL distilled water, room temperature) of 1.38, a pH (5% (w/v) solution, 4.00 mL added to 20 mL distilled water, room temperature) of 1.34 and a pH (5% (w/v) solution, 4.25 mL added to 20 mL distilled water, room temperature) of 1.30. The pH (5% (w/v) solution, 4.50 mL added to 20 mL distilled water, room temperature) was 1.28, the pH (5% (w/v) solution, 4.75 mL added to 20 mL distilled water, room temperature) was 1.26 and the pH (5% (w/v) solution, 5.00 mL added to 20 mL distilled water, room temperature) was 1.25. For the same compound, the pH (10% (w/v) solution, 0.1 mL added to 20 mL distilled water, room temperature) was 2.74, the pH (10% (w/v) solution, 0.2 mL added to 20 mL distilled water, room temperature) was 2.48 and the pH (10% (w/v) solution, 0.3 mL added to 20 mL distilled water, room temperature) was 2.33. It also gave a pH (10% (w/v) solution, 0.4 mL added to 20 mL distilled water, room temperature) of 2.22, a pH (10% (w/v) solution, 0.5 mL added to 20 mL distilled water, room temperature) of 2.14 and a pH (10% (w/v) solution, 0.6 mL added to 20 mL distilled water, room temperature) of 2.07. For the same compound, the pH (10% (w/v) solution, 0.7 mL added to 20 mL distilled water, room temperature) was 2.00, the pH (10% (w/v) solution, 0.8 mL added to 20 mL distilled water, room temperature) was 1.95 and the pH (10% (w/v) solution, 0.9 mL added to 20 mL distilled water, room temperature) was 1.91. The pH (10% (w/v) solution, 1.0 mL added to 20 mL distilled water, room temperature) was 1.86, the pH (10% (w/v) solution, 1.1 mL added to 20 mL distilled water, room temperature) was 1.83 and the pH (10% (w/v) solution, 1.2 mL added to 20 mL distilled water, room temperature) was 1.79. It also gave a pH (10% (w/v) solution, 1.3 mL added to 20 mL distilled water, room temperature) of 1.76, a pH (10% (w/v) solution, 1.4 mL added to 20 mL distilled water, room temperature) of 1.73 and a pH (10% (w/v) solution, 1.5 mL added to 20 mL distilled water, room temperature) of 1.70. For the same compound, the pH (10% (w/v) solution, 1.6 mL added to 20 mL distilled water, room temperature) was 1.67, the pH (10% (w/v) solution, 1.7 mL added to 20 mL distilled water, room temperature) was 1.65 and the pH (10% (w/v) solution, 1.8 mL added to 20 mL distilled water, room temperature) was 1.62. The pH (10% (w/v) solution, 1.9 mL added to 20 mL distilled water, room temperature) was 1.60, the pH (10% (w/v) solution, 2.0 mL added to 20 mL distilled water, room temperature) was 1.58 and the “asymptotic pH” value (either 5% or 10% (w/v) acid solution) was roughly 1.1±0.1. The pH (solutions of at least 2.5% (w/v), according to the tabulated data) was “no more than 1.25” and the “pH of water after addition” value (tiny aliquot, less than 1% by volume, of either 5% or 10% (w/v) solution) was “below 3”.
